# Measured values: US11793779B2, “Hica for use in prophylaxis and/or treatment of a disease or condition involving degradation of cartilage and/or disruption of cartilage homeostasis and/or integrity” (Salarusta Oy, priority 2020, dated 2023)
# Tests used:
# [1] = target: MMP-13 (Homo sapiens, UniProt P45452); experiment: MMP-13 catalytic activity assay (modified pro-urokinase UKcol, chromogenic substrate S-2444, A405); type: biochemical; settings: HICA 25 μg/ml, FIG. 2
# Description: This example was carried out to test the inhibition of the catalytic activity of MMP-13. MMP-13 activity was measured as described previously (Hanemaaijer, Visser et al. 1998). In brief, MMP-13 was captured from biological fluids using MMP-13-specific monoclonal antibody-coated 96-well plates. The wells were washed three times with PBS-T (phosphate buffered saline solution containing 0.05% [v/v] Tween-20) and incubated with […] assay buffer (50 mM Tris-HCl, pH 7.6. 150 mM NaCl, 5 mM CaCl2, 1 μM ZnCl2 and 0.01% [v/v] Brij-35), to which 15 μl (50 μg/ml) modified pro-urokinase (UKcol) and 10 pl (6 mM stock) chromogenic substrate S-2444 was added. Color development was recorded by measurement of A405 using a Titertek Multiskan 8-channel photometer (Verheijen, Nieuwenbroek et al. 1997). For measurement of total activity (already active plus latent MMP-13) in biological fluid, the immobilized MMP-13 was incubated with assay buffer containing 0.5 mM APMA for 2 hr, after which UKcol and S-2444 were added and activity was recorded. (Hanemaaijer, Sier et al. 1999)
# The protocol for this experiment: MMP-13 was activated with […] of APMA (p-aminophenylmercuric acetate, obtained from Sigma-Aldrich #A9563), after which MMP-13 was diluted and mixed with indicated inhibitors. Solution was let to incubate 30 minutes at 37° C. […]
# [2] = system: S-Hyaluronan; experiment: Serum hyaluronan (HA-ELISA) in 4-week double-blind study; type: in vivo, human
# Description: (§1) In order to assess the effects of HICA on type II collagen and hyaluronic acid in healthy adults in vivo a study was conducted, where fifteen healthy male athletes (age 21.3±2.8 yr) volunteered for the 4-week study with double-blind design (Table 1). They were randomized to two parallel groups. Subjects in Group 1 (n=8, age 22.8±4.6 yr, height 179±6 cm, weight 76.2±6.9 kg, fat % 14.1±3.7%) received 583.2 mg of sodium salt of HICA (corresponding 500 mg of HICA) thrice a day for 4 weeks, and those in Group 2 (n=7, age 21.3±3.0 yr, height 178±5 cm, weight 73.5±5.0 kg, fat % 11.1±3.0%) received placebo (650 mg of maltodextrin) thrice a day for the same period. The subjects and the controls received repacked substance of equal volume (1.5 ml) which they were advised to mix with liquid. The subjects and the controls kept physical training constant during the study period, and they kept training daily. Serum specimens were obtained at baseline and in the end of the treatment. Specimens were aliquoted and immediately frozen; serum was collected and frozen at −70° C.
# Serum HA was measured by Hyaluronan Enzyme-Linked Immunosorbent Assay Kit, HA-ELISA (Echelon Biosciences Inc., Salt Lake City, USA). Intra- and interassay coefficients of variation of the serum HA assay were 3.2% and 4.42% respectively. The assay range was 15-1,000 ng/ml, the intraassay CV was <4%, the interassay CV was <6%. […]
# [3] = system: type II collagen C2C neoepitope; experiment: Serum type II collagen C2C neoepitope (ELISA) in 4-week double-blind study; type: in vivo, human
# Description: as §1
# A kit for determination of the type II collagen C2C neoepitope was provided by Ibex Technologies (Montreal, Quebec, Canada). It was measured by means of an enzyme-linked immunosorbent assay (ELISA) (Kojima, Mwale et al. 2001). […]
structure (smiles),measurement,setting,value
"CC(C)CC(O)C(=O)O (racemic) [HICA, 2-hydroxy-4-methylpentanoic acid]",decreased activity of MMP-13,[1]; MMP-13 concentration 1.5 ng/ml,72%
same,decreased activity of MMP-13,[1]; MMP-13 concentration 24 ng/ml,73%
same,S-Hyaluronan after HICA,"[2]; Mean ± SEM, n=8 healthy male athletes, sodium salt of HICA corresponding 500 mg HICA thrice a day for 4 weeks, before 202 ± 56, p = 0.066 vs placebo",143 ± 19 ng/mL
same,decrease in serum HA concentration,"[2]; during 4-week administration of HICA, placebo 10%, p=0.066 between the groups",29%
same,S-C2C after HICA,"[3]; Mean ± SEM, n=8 healthy male athletes, sodium salt of HICA corresponding 500 mg HICA thrice a day for 4 weeks, before 204 ± 14, p = 0.069 vs placebo",189 ± 10 ng/mL
same,decrease in serum C2C,"[3]; during 4-week administration of HICA, placebo 2%, p=0.069 between the groups",8%
